Source: patent US20170143748A1, “ANTI-TUMOR PHARMACEUTICAL APPLICATION OF PENTACYCLIC TRITERPENE SAPONIN COMPOUNDS OF SZECHUAN MELANDIUM ROOT” (priority 2014, published 2017)

Experiments:
[1] = system: BGC823 human gastric adenocarcinoma; test: Anti-BGC823 human gastric adenocarcinoma in BALB/c (nu/nu) nude mice; format: in vivo; set-up: tumor volume of BGC823-bearing nude mice / Tumor mass: unit not given here; conditions: for body weight of BGC823-bearing nude mice / tumor volume of BGC823-bearing nude mice: mg/kg BW: total saponins 1.5, Compound 1, combination 1 & 19, 5-FU 20, Sc; for body weight of BGC823-bearing nude mice: in g (unit assumed)
Experimental: Human resources gastric adenocarcinoma cell line BGC823 was cultured in the same condition as the experiment 4.
The body weight and the tumor volume were measured and recorded weekly. The tumor volume was calculated according to the formula below.
Tumors were departed and weighed. Tumor Index and inhibition rate were calculated as below: […]

[2] = system: HepG2 human heptoma; test: Anti-HepG2 human heptoma in BALB/c (nu/nu) nude mice; conditions: for body weight of HepG2-bearing nude mice / tumor volume of HepG2-bearing nude mice: mg/kg BW: total saponins 1.5, Compound 1, combination 1 & 39, Cytoxan 40, Sc
Experimental: 70 male BALB/c (nu/nu) nude mice (18-20 g, License NO. SCXK (BJ) 2009-0017, National Institutes for Food and Drug Control.) were adaptively bred for one week, and then used in the following experiment.
Human resources hepatoma cell line HepG2 was cultured in RPMI-1640 medium containing 100 U/mL Penicillin and 100 μg/mL Streptomycin with 10% fetal bovine serum and maintained at 37° C. in a humidified atmosphere (5% CO2 and […]).
70 BALB/c (nu/nu) nude mice were adaptively bred for 1 week, HepG2 cells were inoculated subcutaneously into the back of nude mice, 1×10^7 cells per mouse. […] 3 days after inoculation, mice of every therapeutic group were all given the relevant compounds or drugs for 3 weeks, and others were given isodose physiological saline.
The body weight and the size of tumor were measured and recorded weekly. The tumor volume was calculated with the formula below:
tumor volume V=π/6×a×b^2 (a, b means the transverse and longitudinal length of tumor)
At the end of administration, mice were fastened for 8 hours, weighed the fasting body weight, dropped off eyeball to collect blood, centrifuged and collected serum for next experiment. The tumors were departed and weighed. Tumor Index and inhibition rate were calculated as below:
Tumor Index=Tumor mass (mg)/body weight of animal (g)
Inhibition rate=(Average tumor massControl group−Average tumor massadministration group)/Average tumor massControl group×100%
Mice in the model group were injected with sterile water (10 ml/kg BW), Sc. All the animals were treated at 9 am for 3 weeks.
Determination of body weights: Body weights of animals were weighed and recorded once a week.
Tumor measurement: The transverse and longitudinal lengths of tumor were measured with vernier caliper weekly.
End of the experiment: After mice being administrated for 3 weeks (21 days), the experiment was terminated.

[3] = system: HT29 human colon cancer; test: Anti-HT29 human colon cancer in BALB/c (nu/nu) nude mice; format: in vivo; set-up: body weight of HT29-bearing nude mice / tumor volume of HT29-bearing nude mice / Tumor mass: unit not given here; conditions: for body weight of HT29-bearing nude mice / tumor volume of HT29-bearing nude mice: mg/kg BW: total saponins 1.5, Compound 1, combination 1 & 19, PTX 20, Sc
Experimental: Human resources Colon cancer cell line HT29 was cultured in the same condition as the experiment 4. […] Mice were randomly assigned into 7 groups: […] The body weight and the tumor volume were measured and recorded weekly. The tumor volume was calculated according to the formula below. […] The tumors were departed and weighed.

## O=c1[nH]cc(F)c(=O)[nH]1 [Compound 5-FU, 5-FU, reference compound]
[1]; 0 W
  body weight of BGC823-bearing nude mice: 20.20 ± 1.23
[1]; 1 W
  tumor volume of BGC823-bearing nude mice: 931.38 ± 623.32
  body weight of BGC823-bearing nude mice: 19.50 ± 1.51
[1]; 2 W
  tumor volume of BGC823-bearing nude mice: 1262.33 ± 764.46
  body weight of BGC823-bearing nude mice: 18.20 ± 1.81
[1]; 3 W
  tumor volume of BGC823-bearing nude mice: 2212.36 ± 1196.96
  body weight of BGC823-bearing nude mice: 16.70 ± 2.20
[1]; BGC823-bearing nude mice, after 3 weeks, from average tumor mass vs model
  Inhibition rate: 54.85%
[1]; BGC823-bearing nude mice, after 3 weeks, tumor mass/body weight
  Tumor index: 0.08 ± 0.04

## O=P1(N(CCCl)CCCl)NCCCO1 (stereo not drawn) [Cytoxan, reference compound]
[2]; 0 W
  body weight of HepG2-bearing nude mice: 19.20 ± 0.63
[2]; 1 W
  body weight of HepG2-bearing nude mice: 18.50 ± 1.08
  tumor volume of HepG2-bearing nude mice: 988.47 ± 705.60
[2]; 2 W
  body weight of HepG2-bearing nude mice: 16.00 ± 1.41
  tumor volume of HepG2-bearing nude mice: 1220.93 ± 881.80
[2]; 3 W
  body weight of HepG2-bearing nude mice: 14.70 ± 1.34
  tumor volume of HepG2-bearing nude mice: 1593.79 ± 955.17
[2]; HepG2-bearing nude mice, after 3 weeks, from average tumor mass vs model
  Inhibition rate: 70.46%
[2]; HepG2-bearing nude mice, after 3 weeks, tumor mass/body weight
  Tumor index: 0.06 ± 0.02

## CC(=O)O[C@H]1C(=O)[C@@]2(C)[C@H]([C@H](OC(=O)c3ccccc3)[C@]3(O)C[C@H](OC(=O)[C@H](O)[C@@H](NC(=O)c4ccccc4)c4ccccc4)C(C)=C1C3(C)C)[C@]1(OC(C)=O)CO[C@@H]1C[C@@H]2O [PTX, Paclitaxel, reference compound]
[3]; 0 W
  body weight of HT29-bearing nude mice: 20.60 ± 1.32
[3]; 1 W
  body weight of HT29-bearing nude mice: 20.30 ± 1.68
  tumor volume of HT29-bearing nude mice: 943.55 ± 516.62
[3]; 2 W
  body weight of HT29-bearing nude mice: 19.80 ± 1.77
  tumor volume of HT29-bearing nude mice: 996.66 ± 347.05
[3]; 3 W
  body weight of HT29-bearing nude mice: 19.20 ± 1.37
  tumor volume of HT29-bearing nude mice: 801.38 ± 259.34
[3]; HT29-bearing nude mice, after 3 weeks, from average tumor mass vs model
  Inhibition rate: 60.81%
[3]; HT29-bearing nude mice, after 3 weeks, tumor mass/body weight
  Tumor index: 0.06 ± 0.03
